In patent US7851641B2, “Compounds useful for treating neurodegenerative disorders” (Satori Pharmaceuticals, Inc., priority 2005, dated 2010):

Key:
[1] = test system: amyloid-β (1-42) peptide; test: IP-MS quantification of amyloid-β peptides (Wang et al protocol); type: cell-based; conditions: in vitro, FIG. 21
Description: (§1) Compounds of the present invention were assayed to determine their effect on the total ration of amyloid-β (1-42) peptide in vitro using an assay protocol substantially similar to that described by Wang et al, J. Biol. Chem. 1996, 50:31894-31902, The Profile of Soluble Amyloid β Protein in Cultured Cell Media, the entirety of which is hereby incorporated herein by reference. This assay quantifies amyloid-β protein using immunoprecipitation and mass spectrometry (IP-MS).

[2] = test system: amyloid-β (1-42) peptide; test: IP-MS quantification of amyloid-β peptides in 7W cells (APPwt) and 7PA2 cells (APPV717F); type: cell-based; conditions: FIG. 22
Description: as §1
Compound 6 was also assayed according to the method described in Wang et al, in 7W cells (APPwt) and 7PA2 cells (APPV717F). The APP717 mutations increase the relative amount of amyloid-β (1-42) peptide. In this assay, it was shown that compound 6 reduces amyloid-β (1-42) peptide while increasing amyloid-β (1-39) peptide.

## CC(=O)O[C@@H]([C@H]1C[C@@H](C)C2=C(O1)[C@H](O)[C@@]1(C)[C@@H]3CC[C@H]4C(C)(C)[C@@H](O[C@@H]5OC[C@@H](O)[C@H](O)[C@H]5O)CC[C@@]45C[C@@]35CC[C@]21C)C(C)(C)O [Compound 6, 24-O-Acetylhydroshengmanol 3-β-D-xylopyranoside (delta-16,17)-enol ether]
[1]
  effect on amyloid-β (1-37) peptide: increasing
  effect on amyloid-β (1-39) peptide: increasing
  effect on amyloid-β (1-42) peptide: reduced
[2]
  effect on amyloid-β (1-39) peptide: increasing
  effect on amyloid-β (1-42) peptide: reduces
